This is an account of results in ChEMBL document CHEMBL1201862, “PubChem BioAssay data set” (2004).

Test [1] is described as follows: DRD fibroblast viability loss – cell-based, non-viral oncogenic, luminescence, dose response (AID 1934). In kind it is functional. To be noted: Homo sapiens.
Test [2] has as its system BJ. Kind of test: growth inhibition of engineered Ras-driven BJ cells – cell-based, alamar blue fluorescence, cherrypicked samples, dose response (AID 2631).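 Note: confirmatory dose-response assay in RAS-dependent BJ fibroblasts engineered with TERT, LT and ST, with cytotoxicity read by fluorescence.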 Type of test: functional. The conditions noted are these: Homo sapiens.
Test [3] concerns BJ. Kind of test: BJ-TERT-LT-ST fibroblast viability loss – cell-based, RAS-independent, luminescence, dose response (AID 1935).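 Note: BJ fibroblasts immortalized with TERT plus LT and ST oncogenes.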 The conditions noted are these: Homo sapiens. Type of test: functional.
Test [4] concerns BJ. As to the kind of experiment: cells. In kind it is functional, cell-based. To be noted: Homo sapiens.
In test [5] the test system is BJ. Kind of test: BJ-TERT fibroblast viability loss – cell-based, RAS-independent, luminescence, dose response (AID 1933). In kind it is functional. To be noted: Homo sapiens.
For a further test, the target named is T1, Streptokinase A (Streptococcus pyogenes serotype M1, UniProt P10520).
T1 sequence (P10520 whole entry): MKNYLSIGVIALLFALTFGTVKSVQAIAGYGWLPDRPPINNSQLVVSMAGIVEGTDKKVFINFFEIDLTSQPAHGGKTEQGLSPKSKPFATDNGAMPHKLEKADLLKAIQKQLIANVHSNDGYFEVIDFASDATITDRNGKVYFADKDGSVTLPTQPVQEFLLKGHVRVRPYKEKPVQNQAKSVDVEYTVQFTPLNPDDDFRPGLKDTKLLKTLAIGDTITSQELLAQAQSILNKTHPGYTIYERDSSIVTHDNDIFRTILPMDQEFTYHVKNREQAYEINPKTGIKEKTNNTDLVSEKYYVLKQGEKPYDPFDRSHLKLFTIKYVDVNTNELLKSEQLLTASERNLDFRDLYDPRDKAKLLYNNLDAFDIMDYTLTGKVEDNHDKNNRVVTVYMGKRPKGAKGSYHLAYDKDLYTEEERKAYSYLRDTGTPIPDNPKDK
As to the kind of experiment: viability-normalized secreted streptokinase activity reduction – plasminogen activation absorbance, OD405, dose response (AID 1914).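 Note: secreted streptokinase activity via plasminogen activation per viability signal from cell pellet.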 Type of test: functional, Streptococcus pyogenes M1 GAS.

Test [6] has as its system Streptococcus sp. 'group A'. Kind of test: Streptococcus pyogenes SK(-)GAS viability under kanamycin – luminescence, BacTiterGlo, confirmation, counter-screen for streptokinase expression inhibitor project, dose response (AID 1900). In kind it is functional, organism-based.
Test [7] has as its target T2, Apoptotic protease-activating factor 1 (Homo sapiens, UniProt O14727).
T2 sequence (O14727 whole entry): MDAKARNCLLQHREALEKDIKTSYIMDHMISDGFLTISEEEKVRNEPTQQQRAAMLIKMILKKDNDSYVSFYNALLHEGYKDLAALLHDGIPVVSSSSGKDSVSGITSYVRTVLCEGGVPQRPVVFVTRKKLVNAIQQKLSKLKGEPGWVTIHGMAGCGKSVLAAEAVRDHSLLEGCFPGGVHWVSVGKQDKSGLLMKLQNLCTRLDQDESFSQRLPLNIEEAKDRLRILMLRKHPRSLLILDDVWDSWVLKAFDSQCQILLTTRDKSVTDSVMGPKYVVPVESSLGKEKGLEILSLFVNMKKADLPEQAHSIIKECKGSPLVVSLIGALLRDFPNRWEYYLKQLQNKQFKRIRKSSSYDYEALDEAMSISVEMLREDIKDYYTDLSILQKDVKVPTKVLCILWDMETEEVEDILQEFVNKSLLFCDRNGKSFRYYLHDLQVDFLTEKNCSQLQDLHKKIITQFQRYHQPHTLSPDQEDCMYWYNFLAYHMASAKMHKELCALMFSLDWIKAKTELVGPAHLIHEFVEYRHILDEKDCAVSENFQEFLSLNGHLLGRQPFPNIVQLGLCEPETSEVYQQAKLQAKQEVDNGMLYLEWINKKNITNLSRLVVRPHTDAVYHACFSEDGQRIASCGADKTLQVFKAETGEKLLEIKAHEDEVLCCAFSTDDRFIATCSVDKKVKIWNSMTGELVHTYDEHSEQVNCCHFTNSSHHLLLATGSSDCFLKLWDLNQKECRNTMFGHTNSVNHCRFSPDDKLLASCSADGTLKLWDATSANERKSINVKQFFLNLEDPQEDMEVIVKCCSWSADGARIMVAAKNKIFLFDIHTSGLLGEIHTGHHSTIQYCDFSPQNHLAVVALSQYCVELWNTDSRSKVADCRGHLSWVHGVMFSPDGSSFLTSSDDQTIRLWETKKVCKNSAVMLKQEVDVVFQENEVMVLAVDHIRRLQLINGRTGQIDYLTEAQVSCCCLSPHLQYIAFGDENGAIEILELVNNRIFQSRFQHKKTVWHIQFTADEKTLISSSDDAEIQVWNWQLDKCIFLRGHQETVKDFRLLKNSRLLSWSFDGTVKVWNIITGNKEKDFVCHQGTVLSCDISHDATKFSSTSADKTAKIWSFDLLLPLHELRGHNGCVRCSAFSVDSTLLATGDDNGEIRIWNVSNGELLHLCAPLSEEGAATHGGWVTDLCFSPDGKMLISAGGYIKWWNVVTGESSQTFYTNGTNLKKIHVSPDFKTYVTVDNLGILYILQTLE
Type of test: functional.

Another test concerns Streptococcus. Kind of test: GAS UMAA2166 growth inhibition – luminescence, BacTiterGlo, counter-screen for streptokinase expression inhibitor project, dose response (AID 1915).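 Note: potency for reduction of bacterial viability or growth.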 In kind it is functional, organism-based.
Another test concerns the target T3, Caspase-3 (Homo sapiens, UniProt P42574).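 Note: Dose-response selectivity test against caspase-3 for candidate inhibitors of sentrin-specific proteases (SENPs).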
T3 sequence (P42574 whole entry): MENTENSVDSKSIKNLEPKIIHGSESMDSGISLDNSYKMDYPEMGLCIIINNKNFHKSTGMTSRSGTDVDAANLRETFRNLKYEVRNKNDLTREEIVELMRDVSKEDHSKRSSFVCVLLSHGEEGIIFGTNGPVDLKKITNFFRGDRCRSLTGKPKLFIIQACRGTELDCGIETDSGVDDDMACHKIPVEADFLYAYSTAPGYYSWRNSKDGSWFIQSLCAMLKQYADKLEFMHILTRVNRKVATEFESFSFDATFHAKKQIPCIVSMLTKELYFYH
Type of test: functional.

In test [8] the target is T4, Sentrin-specific protease 8 (Homo sapiens, UniProt Q96LD8).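 Note: luminescence read-out of SENP8 inhibition, dose-response confirmation following an ultra-high-throughput screen.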
T4 sequence (Q96LD8 whole entry): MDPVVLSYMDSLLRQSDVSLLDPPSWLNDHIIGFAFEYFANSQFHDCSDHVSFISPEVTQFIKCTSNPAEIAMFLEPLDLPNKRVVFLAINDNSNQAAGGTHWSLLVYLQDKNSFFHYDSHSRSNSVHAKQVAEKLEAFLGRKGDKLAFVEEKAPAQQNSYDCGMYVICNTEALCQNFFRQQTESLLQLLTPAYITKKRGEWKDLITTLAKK
Type of test: functional.

The target of test [9] is T5, Sentrin-specific protease 7 (Homo sapiens, UniProt Q9BQF6).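 Note: Luminescence-based dose-response confirmation of ultra-high-throughput screening hits, measuring inhibition of SENP7.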
T5 sequence (Q9BQF6 whole entry): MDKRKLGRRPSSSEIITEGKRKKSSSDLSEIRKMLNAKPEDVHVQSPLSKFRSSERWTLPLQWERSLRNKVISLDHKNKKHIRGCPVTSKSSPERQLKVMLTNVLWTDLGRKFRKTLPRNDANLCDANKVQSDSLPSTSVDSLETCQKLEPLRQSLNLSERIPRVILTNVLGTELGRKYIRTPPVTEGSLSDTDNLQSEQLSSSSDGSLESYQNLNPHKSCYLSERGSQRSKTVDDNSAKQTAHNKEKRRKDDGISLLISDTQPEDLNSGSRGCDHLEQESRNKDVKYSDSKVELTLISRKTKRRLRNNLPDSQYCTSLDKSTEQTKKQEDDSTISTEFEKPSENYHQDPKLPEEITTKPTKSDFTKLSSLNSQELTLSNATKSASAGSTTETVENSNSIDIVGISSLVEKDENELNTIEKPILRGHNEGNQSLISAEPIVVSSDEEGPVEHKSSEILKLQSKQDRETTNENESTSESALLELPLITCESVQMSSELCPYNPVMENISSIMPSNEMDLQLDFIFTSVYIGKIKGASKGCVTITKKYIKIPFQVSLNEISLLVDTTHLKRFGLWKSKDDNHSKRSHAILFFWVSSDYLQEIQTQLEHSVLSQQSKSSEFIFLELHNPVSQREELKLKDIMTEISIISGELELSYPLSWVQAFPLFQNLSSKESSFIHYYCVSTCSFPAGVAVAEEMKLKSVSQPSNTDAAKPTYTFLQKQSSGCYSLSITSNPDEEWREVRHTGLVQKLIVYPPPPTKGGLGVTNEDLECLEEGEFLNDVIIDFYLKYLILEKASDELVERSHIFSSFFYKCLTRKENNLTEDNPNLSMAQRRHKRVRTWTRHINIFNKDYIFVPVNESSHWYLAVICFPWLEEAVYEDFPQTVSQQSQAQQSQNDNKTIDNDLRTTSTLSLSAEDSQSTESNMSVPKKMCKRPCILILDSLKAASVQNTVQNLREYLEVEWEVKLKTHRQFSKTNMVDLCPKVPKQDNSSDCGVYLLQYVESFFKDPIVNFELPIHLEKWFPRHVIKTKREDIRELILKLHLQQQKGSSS
Type of test: functional.

Test [10] addresses T6, Sentrin-specific protease 6 (Homo sapiens, UniProt Q9GZR1).
T6 sequence (Q9GZR1 whole entry): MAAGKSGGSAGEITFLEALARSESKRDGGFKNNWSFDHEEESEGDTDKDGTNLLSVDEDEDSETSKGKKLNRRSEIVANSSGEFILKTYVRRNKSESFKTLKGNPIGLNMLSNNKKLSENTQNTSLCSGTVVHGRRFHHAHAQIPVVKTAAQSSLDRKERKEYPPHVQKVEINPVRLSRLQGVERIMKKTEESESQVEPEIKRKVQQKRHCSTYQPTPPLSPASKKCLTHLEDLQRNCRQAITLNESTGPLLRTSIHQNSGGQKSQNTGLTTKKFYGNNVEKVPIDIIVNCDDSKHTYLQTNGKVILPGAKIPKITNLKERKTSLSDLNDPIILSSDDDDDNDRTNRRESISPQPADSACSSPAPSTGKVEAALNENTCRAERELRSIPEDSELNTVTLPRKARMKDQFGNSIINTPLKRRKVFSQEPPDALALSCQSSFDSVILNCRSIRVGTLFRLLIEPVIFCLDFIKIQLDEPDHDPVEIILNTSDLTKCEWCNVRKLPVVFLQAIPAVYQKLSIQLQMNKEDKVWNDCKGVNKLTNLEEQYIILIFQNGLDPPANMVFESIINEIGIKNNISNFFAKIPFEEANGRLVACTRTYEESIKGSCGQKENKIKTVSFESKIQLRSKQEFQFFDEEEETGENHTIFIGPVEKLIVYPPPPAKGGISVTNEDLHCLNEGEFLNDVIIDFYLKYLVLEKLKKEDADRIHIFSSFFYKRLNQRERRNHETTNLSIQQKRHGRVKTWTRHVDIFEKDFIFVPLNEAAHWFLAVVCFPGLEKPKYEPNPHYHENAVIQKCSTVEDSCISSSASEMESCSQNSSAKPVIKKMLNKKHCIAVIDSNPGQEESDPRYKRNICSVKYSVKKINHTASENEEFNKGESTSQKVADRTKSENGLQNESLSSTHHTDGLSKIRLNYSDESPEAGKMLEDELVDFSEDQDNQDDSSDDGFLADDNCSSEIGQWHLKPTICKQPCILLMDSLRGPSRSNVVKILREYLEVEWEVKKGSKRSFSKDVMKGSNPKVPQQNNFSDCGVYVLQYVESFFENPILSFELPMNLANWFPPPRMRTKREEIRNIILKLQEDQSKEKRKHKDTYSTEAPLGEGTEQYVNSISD
Type of test: functional.

For another test, the target named is Large T antigen (Simian virus 40, UniProt P03070). In kind it is functional, Betapolyomavirus macacae.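 Note: Confirmatory-stage PubChem screen for compounds that inhibit SV40 T antigen.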
The nature of test [11]: Luminescence Cell-Based Dose Response HTS to Identify Activators of Luciferase Translation or Activity in H4 […] Cells. [Related pubchem assays: 1829 (Project Summary), 1814 (Primary HTS)]. In kind it is functional.
Another test has as its system H4. As to the kind of experiment: Luminescence Cell-Based Dose Response HTS to Identify Activators of 5'UTR Stem-Loop Driven Prion Protein mRNA Translation in H4 Neuroglioblastoma Cells. [Related pubchem assays: 1829 (Project Summary), 1814 (Primary HTS)]. To be noted: Homo sapiens. In kind it is functional.
The next test addresses Cytochrome P450 2C9 (Homo sapiens, UniProt P11712).
Test [12] is described as follows: Luminescence Cell-Based Dose Confirmation HTS to Identify Activators of 5'UTR Stem-Loop Driven Alpha-Synuclein mRNA Translation in H4 Neuroglioblastoma Cells. [Related pubchem assays: 1829 (Project Summary), 1814 (Primary HTS)]. Type of test: functional.

Active and inactive are the calls of the source.

Sequence of Cytochrome P450 2C9 (P11712 whole entry): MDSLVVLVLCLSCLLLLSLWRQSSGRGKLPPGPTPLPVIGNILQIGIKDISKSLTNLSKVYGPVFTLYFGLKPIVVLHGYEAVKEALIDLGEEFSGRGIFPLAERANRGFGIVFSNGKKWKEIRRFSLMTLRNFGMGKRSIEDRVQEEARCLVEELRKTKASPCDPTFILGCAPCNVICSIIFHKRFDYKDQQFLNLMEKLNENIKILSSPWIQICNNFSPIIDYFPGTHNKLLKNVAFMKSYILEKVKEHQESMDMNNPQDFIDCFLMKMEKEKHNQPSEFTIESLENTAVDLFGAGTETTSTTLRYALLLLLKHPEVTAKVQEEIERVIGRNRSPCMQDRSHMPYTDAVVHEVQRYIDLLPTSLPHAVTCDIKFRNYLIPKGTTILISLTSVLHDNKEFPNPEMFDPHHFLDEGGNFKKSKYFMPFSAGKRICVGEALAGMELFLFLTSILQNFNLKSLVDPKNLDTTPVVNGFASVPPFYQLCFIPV
Sequence of Large T antigen (P03070 whole entry): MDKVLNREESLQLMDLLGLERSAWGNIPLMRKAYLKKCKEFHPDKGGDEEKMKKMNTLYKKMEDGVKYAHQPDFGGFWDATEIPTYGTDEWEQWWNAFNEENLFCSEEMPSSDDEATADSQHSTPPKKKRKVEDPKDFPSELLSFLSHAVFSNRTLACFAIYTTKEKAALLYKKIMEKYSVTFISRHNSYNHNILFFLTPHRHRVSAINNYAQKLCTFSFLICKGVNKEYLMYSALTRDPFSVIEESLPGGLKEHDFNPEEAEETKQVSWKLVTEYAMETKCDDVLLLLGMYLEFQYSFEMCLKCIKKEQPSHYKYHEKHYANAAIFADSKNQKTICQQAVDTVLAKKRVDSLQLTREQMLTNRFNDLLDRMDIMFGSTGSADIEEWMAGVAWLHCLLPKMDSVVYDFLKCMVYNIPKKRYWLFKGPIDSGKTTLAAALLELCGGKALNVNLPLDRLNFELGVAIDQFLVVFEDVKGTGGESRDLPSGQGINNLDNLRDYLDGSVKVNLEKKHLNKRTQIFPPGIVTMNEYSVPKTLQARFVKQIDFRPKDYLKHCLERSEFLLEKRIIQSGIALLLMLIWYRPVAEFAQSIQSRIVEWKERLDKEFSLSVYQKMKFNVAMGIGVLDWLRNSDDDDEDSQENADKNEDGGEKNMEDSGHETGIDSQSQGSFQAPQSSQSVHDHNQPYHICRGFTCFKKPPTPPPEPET

Turning to `COCCCNC(=O)Cc1c(C)c2c(cc(C)c3c(C(C)(C)C)coc32)oc1=O`, the EC50 in test [1] is 10.6 µM (inconclusive); with BJ [2], 473 nM (active); in the test on BJ [3], 4.18 µM (active); in the test with BJ [4], 19.3 µM (inconclusive); in the test with BJ [5], 8.02 µM (inconclusive).

Regarding `C[C@@]12CCC=C[C@H]1[C@H](c1ccc3ccccc3c1Br)N(Cc1ccccc1)C2=O`, the EC50 on Streptokinase A is 5.76 µM (active); in test [6], 4.22 µM (active); in the test on Streptococcus, 5.78 µM (active). The half-maximal inhibitory concentration (IC50) in [7] is 59.3 µM (active).

Consider `Fc1ccc(NC(=S)N2N=CCC2c2ccccc2)cc1` (stereo not given), for which the IC50 on Caspase-3 is 15.9 µM (active); in [8], 38.3 µM (active); in test [9], 11.8 µM (active); in [10] it was 39.3 µM (active).

With `Cc1cc(C)c2c(CCl)cc(=O)oc2c1`, on Large T antigen, the half-maximal inhibitory concentration (IC50) was 9.73 µM (active). For the same compound, the half-maximal effective concentration (EC50) was 0.762 µM (active) in [1]; 296 nM (active) in the test with BJ [2]; 0.584 µM (inconclusive) with BJ [3]; 0.676 µM (active) in the test on BJ [4]; 0.784 µM (active) in the test on BJ [5].

On to `Clc1ccc(-c2cc3ccccc3[nH]2)cc1`, for which the concentration giving a half-maximal response (EC50) in test [11] is 106 µM (active); in the test on H4, 9.01 µM (active); in [12], 3.77 µM (active). Further, the IC50 is 16 µM (active) on Caspase-3, 19.9 µM (active) in [8], 8.48 µM (active) in [9] and 18 µM (active) in [10]. Also, on Cytochrome P450 2C9, the AC50 is 11.2 µM (inconclusive).

`Cc1cc(-n2c(C)cc(C(=O)COc3ccc(F)c(F)c3)c2C)no1`: the half-inhibitory concentration (IC50) was 21 µM (active) on Caspase-3, 20.4 µM (active) in [8], 8.26 µM (active) in [9] and 22.7 µM (active) in [10].

As for `C/C(=N/OC(=O)c1ccccc1Br)c1ccc(C)cc1`, the concentration for half-maximal inhibition (IC50) was 31.3 µM (active) on Caspase-3, 46.9 µM (active) in test [8], 7.72 µM (active) in test [9] and 28.1 µM (active) in test [10].
